The source made the active and inactive calls.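 How the source made its calls: active means AC50 no more than tenfold above the top dose tested, or full inhibition at every dose with a flat fit (cut at about 19 µM in these data); inconclusive means flat curve fit with inhibition between 30% and 70%, or poor fit; inactive means AC50 more than tenfold above the top dose tested.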
System: HMLE_sh_eGFP viability, CellTiter-Glo luminescence, 72 h
Assay: viability loss of HMLE_sh_eGFP cells – cell-based, luminescence, counter-screen for HMLE_sh_ECad selective toxicity project, dose response (AID 463074);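 further: counterscreen control line to flag general toxicity for the HMLE_sh_ECad screen; potency for loss of viability as luminescence drops below DMSO wells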

Row | SMILES | AC50
1 | COCCNc1nnc(SC(C)C(=O)Nc2ccc(-c3nc4ccc(C)cc4s3)cc2)s1 (stereo unspecified) | 10.5 µM
2 | CCC1CSC(Nc2ccc(C(=O)/C=C/c3cccc(C)c3)cc2)=N1 (stereo unspecified) | 5.56 µM
3 | Cn1nnnc1Sc1ncnc2scc(-c3cccc4c3sc3ccccc34)c12 | 1.65 µM
4 | CCOc1cc(/C=N/O)cc(Br)c1OCc1ccc(Cl)cc1 | 5.69 µM
5 | S=C(Nc1cccc(Cl)c1)N(CCCN1CCCC1)Cc1cccn1Cc1ccc(Cl)cc1 | 6.86 µM
6 | O=C(Nc1ccccc1)C1=C[C@@H](c2csc3ccccc23)C[C@@H](OCc2ccc(CO)cc2)O1 | 4.11 µM
7 | Cc1cc(C2(c3ccc(O)c(C)c3)C(=O)Nc3ccccc32)ccc1O | 7.1 µM
8 | CC(C)(C)[C@H](N)C(=O)N[C@H]1CCC2C3CC=C4C[C@@H](O)CC[C@]4(C)C3CC[C@@]21C (stereo partly specified) | 7.74 µM
9 | OCCN1CCN(CCCN2c3ccccc3Sc3ccc(C(F)(F)F)cc32)CC1 | 4.67 µM
10 | O=C(Nc1ccc(Cl)cc1)Nc1nnc(-c2ccncc2)s1 | 2.42 µM
11 | CCc1ccc(CNC(=O)C2CCN(c3nnc(C)c4c(C)n(-c5ccc(C)cc5)nc34)CC2)cc1 | 4.14 µM
12 | Cc1ccnc(Nc2nc(-c3ccc(O)cc3O)cs2)c1 | 14.9 µM
13 | CCOC(=O)c1c(NC(NC(=O)C(C)C)C(Cl)(Cl)Cl)sc2c1CCC2 (stereo unspecified) | 7.47 µM
14 | O=C(NCc1cccnc1)c1ccc(NC(=O)c2ccc(Br)cc2)cc1 | 3.11 µM
15 | COc1ccccc1/C=C/C=N/n1c(-c2n[nH]c3c2CCC3)n[nH]c1=S | 19.7 µM
16 | c1ccc2c(-c3ccc(OCCN4CCCCC4)cc3)c(-c3ccsc3)sc2c1 | 2.72 µM
17 | CCC1=Nc2cc(C(=O)NCc3cccnc3)ccc2Sc2ccc(C)cc21 | 0.816 µM
18 | Cc1ccc(OCCN2CCN(c3nc(NCc4ccco4)c4ccccc4n3)CC2)cc1 | 4.66 µM
19 | COc1ccc(/C=C/C(=O)c2ccccc2)cc1Cn1nnc2ccccc21 | 6.28 µM
20 | Cc1ccc(OCC(O)Cn2c3ccccc3c3ccccc32)cc1 (stereo unspecified) | 6.78 µM
21 | CC1=C(C(=O)OC2CCCCC2)C(c2ccc(C)o2)C2=C(CC(C)(C)CC2=O)N1 (stereo unspecified) | 12.9 µM
22 | O=C(Cc1ccccc1)Nc1cccc(NC(=O)c2ccccc2)c1 | 9.89 µM

Row | SMILES | AC50
23 | Cc1nc(NC(=O)c2ccco2)sc1-c1csc(Nc2ccc(Cl)cc2)n1 | 2.54 µM
24 | O=C1C(Cl)=C(Nc2ccccc2)C(=O)c2ccccc21 | 2.19 µM
25 | C[C@@H]1O[C@@H](O[C@H]2C[C@@H](O)[C@]3(CO)[C@@H]4C(CC[C@]3(O)C2)[C@@]2(O)CC[C@H](C3COC(=O)C3)[C@@]2(C)C[C@H]4O)[C@H](O)[C@H](O)[C@H]1O (stereo partly specified) | 0.707 µM
26 | CN(C(=S)Nc1ccc(SC(F)F)cc1)C(c1ccccc1)c1ccccc1 | 5.58 µM
27 | O=C(NNc1ccccc1)C(=O)N1CCCCC1 | 3.16 µM
28 | COc1ccc(-c2sc3ccccc3c2C#Cc2cncn2C)cc1 | 4.83 µM
29 | CC[C@@]1(O)C(=O)OCc2c1cc1n(c2=O)Cc2cc3c(NC(=O)CN)cccc3nc2-1 | 2.56 µM
30 | CC/C(=C\C1CCCCC1)C(NP(=O)(c1ccccc1)c1ccccc1)c1ccccc1 (stereo unspecified) | 3.49 µM
31 | Cc1ccc(NS(=O)(=O)c2ccc(Cl)c(C(=O)Nc3ccccc3-c3nc4ccccc4[nH]3)c2)cc1C | 1.48 µM
32 | CCOC(=O)c1cccc(C2=CC(=O)C[C@H](c3ccc(Cl)cc3)C2)c1 | 2.82 µM
33 | N#Cc1c(-c2ccccc2)nc(SCc2cccc(Cl)c2)[nH]c1=O | 7.69 µM
34 | CCCOc1ccc2c(c1)C(=NN=C(N)N)c1cc(OCCC)ccc1-2 | 3.7 µM
35 | O=C(NCCC1=CCCCC1)c1coc(=O)c(Br)c1 | 11.7 µM
36 | CCCCn1c(=O)c(C(=O)NCc2ccc(Cl)cc2)c(O)c2ccccc21 | 7.8 µM
37 | COc1cccc(/C=N/Nc2ncnc(Cl)c2N)c1O | 3.29 µM
38 | CCC/C(=C1/c2ccccc2C(=O)N1c1ccccc1)c1ccc2c(c1)OCCO2 | 4.08 µM
39 | O=S(=O)(N/N=C1/CC(c2ccccc2)Oc2ccccc21)c1ccc(Br)cc1 (stereo unspecified) | 4.21 µM
40 | Fc1ccc(C(c2ccc(F)cc2)N2CCN(C/C=C/c3ccccc3)CC2)cc1 | 7.18 µM
41 | Clc1ccc(-c2nnnn2-c2ccc(Cl)c(Cl)c2)cc1Cl | 15.2 µM
42 | CC(=O)c1c(C)oc2c1C(=O)c1ccccc1C2=O | 4.4 µM
43 | COc1ccc(NC(=O)c2nc[nH]c2C(=O)N[C@@H](CC(C)C)C(=O)OC(C)(C)C)cc1 | 8.85 µM
44 | COc1cc(Br)cc(/C=C/c2ccc3cccc(O)c3n2)c1O | 3.91 µM

Row | SMILES | AC50
45 | CC(=O)c1ccc(-c2cc([C@H]3[C@H]4C=CC[C@@H](C)[C@@H]4C(=O)N3Cc3ccccc3)ccc2F)cc1 | 6.87 µM
46 | COc1ccc(N/N=C/c2c(O)n(-c3ccc(C)c(C)c3)c(=O)[nH]c2=O)cc1 | 1.12 µM
47 | OCCCCC#Cc1c(-c2ccsc2)sc2ccccc12 | 5.56 µM
48 | COc1cccc(/C=C/c2nc(C#N)c(NCC(C)C)o2)c1 | 5.06 µM
49 | COc1cc(C(=O)OC2CC3CCC2(C)C3(C)C)ccc1OC(C)=O (stereo unspecified) | 6.46 µM
50 | COc1ccc(-c2cc(C(=O)N3CC4(C)CC3CC(C)(C)C4)no2)cc1OC (stereo unspecified) | 10.6 µM
51 | COc1ccc(C(=O)C2CCCN(C3CSCCSC3)C2)c(OC)c1 (stereo unspecified) | 4.74 µM
52 | CC(C)OC(=O)c1c2c(n3ccccc13)C(=O)c1ccccc1C2=O | > 19.5 µM (inactive)
53 | O=C(/C=C/c1ccc(Cl)c([N+](=O)[O-])c1)c1ccc(O)cc1 | 3.72 µM
54 | COc1ccc(CCCC(=O)N/N=C/c2cccc(OC)c2O)cc1C | 3.13 µM
55 | CC(=O)Nc1ccc(OCC(O)CN2CCN(c3ccc(C)c(Cl)c3)CC2)cc1 (stereo unspecified) | 8.97 µM
56 | Clc1ccc(C(Cn2ccnc2)OCc2csc3c(Cl)cccc23)c(Cl)c1 (stereo unspecified) | 3.16 µM
57 | O=C(CSC1=NNC(c2ccccn2)S1)Nc1ccc(C(F)(F)F)cc1 (stereo unspecified) | 4.27 µM
58 | COc1ccc(CCNc2cc(C)nc3c(-c4ccc(Cl)cc4)c(C)nn23)cc1OC | 3.62 µM
59 | COc1cccc(/C=N/NC(=O)c2ccc(-c3ccccc3)cc2)c1O | 3.33 µM
60 | Cc1ccc(F)c(NC(=O)/C(C#N)=C(\O)c2ccc(C(C)(C)C)cc2)c1 | 8.58 µM
61 | Cc1ccc2sc(N(CCCN(C)C)C(=O)c3ccc(S(=O)(=O)N4CCCCCC4)cc3)nc2c1C | 7.04 µM
62 | CCn1c(C)c(C)c2cc(C(=O)Nc3cccc(Cl)c3)ccc21 | 4.05 µM
63 | NCCNc1ccc(C(=O)N2c3ccccc3Sc3ccccc32)cc1[N+](=O)[O-] | 8.03 µM
64 | COc1ccc(-n2nc3c(N4CCC(C(=O)NCCc5ccccc5C)CC4)nnc(C)c3c2C)cc1 | 4.85 µM
65 | Cc1cc(NC(=O)c2cc(-c3ccncc3)nc3ccccc23)ccc1Br | 6.77 µM
66 | O=[N+]([O-])c1ccc(COc2ccc(-c3[nH]ncc3-c3ccc(Cl)cc3)c(O)c2)cc1 | 4.01 µM

Row | SMILES | AC50
67 | COc1ccc(C(=O)/C=C/c2ccc(OCc3ccccc3)cc2)cc1CSCC(=O)O | 5.81 µM
68 | O=C(c1ccc(Cl)cc1)c1c[nH]c(C(=O)NNc2ccccc2)c1 | 1.85 µM
69 | O=C(NNc1ccc(Cl)cc1)c1cccs1 | 1.58 µM
70 | COc1ccc(C)cc1NS(=O)(=O)c1ccc(NC(=O)CN(c2cc([N+](=O)[O-])ccc2C)S(C)(=O)=O)cc1 | 3.8 µM
71 | CC(NC(=O)COC(=O)c1cc(NS(=O)(=O)c2ccc(Cl)c([N+](=O)[O-])c2)ccc1O)C1CC2CCC1C2 (stereo unspecified) | 3.52 µM
72 | O=C(Nc1ccc([N+](=O)[O-])cc1)Nc1ccc(OC(F)F)c(Cl)c1 | 2.09 µM
73 | CC(=O)Nc1ccc(-c2csc(NC(=O)Cc3cccc(F)c3)n2)cc1 | 5.64 µM
74 | Cc1cccc(NC(=O)CCC(=O)N/N=C/c2ccc(O)cc2O)c1 | 10.6 µM
75 | O=C(CCSc1nc2ccccc2s1)N/N=C/c1c(O)ccc2ccccc12 | 16.2 µM
76 | COc1ccccc1/C=C1\SC(=O)N(CCC(=O)NCCCn2ccnc2)C1=O | 19.5 µM
77 | C(=C\c1nc(N2CCCCCC2)c2ccccc2n1)/c1ccccc1 | 5.54 µM
78 | O=C(Nc1nc(-c2cccc3ccccc23)cs1)c1ccc2c(c1)S(=O)(=O)c1ccccc1C2=O | 11.3 µM
79 | CC(C)=CCc1c(O)c(CC=C(C)C)c2occ(-c3ccc(O)cc3)c(=O)c2c1O | 3.49 µM
80 | CCS(=O)(=O)Nc1ccc(-c2cc(-c3ccccc3)c3cc(C)ccc3n2)cc1 | 3.85 µM
81 | CC1=C(/C=C/C(C)=C/C=C/C(C)=C/C(=O)Nc2ccc(O)cc2)C(C)(C)CCC1 | 2.26 µM
82 | COc1cc(OC)c2cc(C(=O)N/N=C/c3cccc(OC)c3O)[nH]c2c1 | 6.08 µM
83 | CC(=O)Oc1ccc(C#C/C=C2\c3ccccc3C(=O)N2c2ccccc2)cc1 | 4.92 µM
84 | Cc1c(CCOC(=O)CC23CC4CC(CC(C4)C2)C3)sc[n+]1CC(=O)c1ccc(Br)cc1 | 2.6 µM
85 | CCCCc1ccc(NC(=O)Nc2cc(C)nn2C)cc1 | 2.09 µM
86 | O=C(CNC(=O)C(c1ccccc1)c1ccccc1)N/N=C/c1ccc(O)cc1O | 1.88 µM
87 | CC1(C)C[C@@H]2C[C@@](C)(CN2C(=O)c2cc(COc3cccc(C(F)(F)F)c3)on2)C1 | 4.8 µM
88 | CCn1c(C)nc2cc(C(=O)N/N=C/c3cccc(OC)c3O)ccc21 | 6.95 µM

Row | SMILES | AC50
89 | Oc1cccc(-c2nc3c4c(ncn3n2)-c2ccccc2CC42CCCC2)c1 | 1.5 µM
90 | Oc1ccc(CCNc2ncnc3ccc(Cl)cc23)cc1 | 7.91 µM
91 | Cc1ccc(S(=O)(=O)c2c(C)nn(C(C)(C)C)c2OC(=O)c2ccc(Br)o2)cc1 | 2.64 µM
92 | CCCCNc1c(-c2ccc(OC)c(Sc3ccc(OC)cc3)c2)nc2ccccn12 | 4.55 µM
93 | COc1cc(/C=C(\C#N)c2ccccn2)ccc1OCC(=O)Nc1ccc(Br)cc1 | 2.7 µM
94 | CN1CC(c2ccccc2)C2(SC(=S)N(Cc3ccco3)C2=O)C12C(=O)Nc1ccccc12 (stereo unspecified) | 7.31 µM
95 | CCc1cc2cc(C)cc(C)c2nc1SCC(=O)N1CCN(C(=O)c2ccco2)CC1 | 13.4 µM
96 | CC(=O)Oc1ccc(-c2csc(Nc3cccc(C)n3)n2)cc1 | 8.79 µM
97 | COc1ccc(-c2cc([C@H]3[C@@H]4C=CCC[C@@]4(C)C(=O)N3Cc3ccccc3)ccc2F)cc1 | 6.8 µM
98 | CCC(O)(CC)C(=O)N/N=C/c1cc(Br)cc(Br)c1O | 19.8 µM
99 | O=c1c2cn[nH]c2nc(SCc2ccccc2F)n1-c1ccc(Br)cc1 | 4.9 µM
100 | Oc1cccc(/C=C/c2ccc3cccc(O)c3n2)c1 | 4.83 µM
101 | CCNc1nc(Oc2c(Cl)cccc2Cl)cc(C(F)(F)F)n1 | 13.1 µM
102 | O=C1/C(=C\c2cccc(O)c2O)SC(=S)N1Cc1ccccc1 | 4.85 µM
103 | O=C(Nc1cccc(Cl)c1)Nc1csc([N+](=O)[O-])c1 | 5.64 µM
104 | CCCCOc1ccc(C(=O)Nc2ccc3c(c2)OCO3)cc1 | 3.66 µM
105 | FC(F)(F)c1cccc(NC(=S)N(CCCN2CCCC2)Cc2cccn2Cc2ccc(Cl)cc2)c1 | 3.51 µM
106 | O=C(/C=C/c1ccc2c(c1)OCO2)NCCSCc1c(Cl)cccc1Cl | 2 µM
